In ChEMBL document CHEMBL4052650, “Halogen-substituted catechol bisphosphates are potent and selective inhibitors of the transcription factor STAT5b” (Bioorg Med Chem, 2017):

Key:
[1] = target: T1, Signal transducer and activator of transcription 5A (Homo sapiens, UniProt P42229); test: Displacement of 5-carboxyfluorescein-GY(PO3H2)LVLDKW from STAT5A SH2 domain (unknown origin) pretreated for 1 hr followed by fluorescent tracer addition after 1 hr by fluorescence polarization assay
T1 sequence (P42229 whole entry): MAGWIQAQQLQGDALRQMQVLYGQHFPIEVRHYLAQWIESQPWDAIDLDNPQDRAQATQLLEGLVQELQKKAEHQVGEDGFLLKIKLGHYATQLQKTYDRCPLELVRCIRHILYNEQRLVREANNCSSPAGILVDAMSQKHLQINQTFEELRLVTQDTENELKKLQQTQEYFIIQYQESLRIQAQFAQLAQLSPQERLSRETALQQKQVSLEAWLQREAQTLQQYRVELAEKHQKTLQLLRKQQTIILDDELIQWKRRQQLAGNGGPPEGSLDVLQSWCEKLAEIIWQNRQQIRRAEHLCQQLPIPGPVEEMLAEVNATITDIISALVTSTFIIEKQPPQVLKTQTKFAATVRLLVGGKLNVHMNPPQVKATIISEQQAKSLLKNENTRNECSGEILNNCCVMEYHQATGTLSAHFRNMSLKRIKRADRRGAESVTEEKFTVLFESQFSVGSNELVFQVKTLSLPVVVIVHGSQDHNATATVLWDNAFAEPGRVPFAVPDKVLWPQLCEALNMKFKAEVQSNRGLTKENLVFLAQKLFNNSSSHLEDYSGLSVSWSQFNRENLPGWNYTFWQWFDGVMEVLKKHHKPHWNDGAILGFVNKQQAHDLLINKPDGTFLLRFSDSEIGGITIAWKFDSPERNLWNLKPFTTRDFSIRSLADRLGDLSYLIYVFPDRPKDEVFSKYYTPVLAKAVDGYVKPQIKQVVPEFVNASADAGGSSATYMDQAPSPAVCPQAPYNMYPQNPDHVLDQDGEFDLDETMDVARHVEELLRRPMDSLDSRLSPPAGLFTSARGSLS

[2] = target: T2, Signal transducer and activator of transcription 5B (Homo sapiens, UniProt P51692); test: Displacement of 5-carboxyfluorescein-GY(PO3H2)LVLDKW from STAT5B SH2 domain (unknown origin) pretreated for 1 hr followed by fluorescent tracer addition after 1 hr by fluorescence polarization assay
T2 sequence (P51692 whole entry): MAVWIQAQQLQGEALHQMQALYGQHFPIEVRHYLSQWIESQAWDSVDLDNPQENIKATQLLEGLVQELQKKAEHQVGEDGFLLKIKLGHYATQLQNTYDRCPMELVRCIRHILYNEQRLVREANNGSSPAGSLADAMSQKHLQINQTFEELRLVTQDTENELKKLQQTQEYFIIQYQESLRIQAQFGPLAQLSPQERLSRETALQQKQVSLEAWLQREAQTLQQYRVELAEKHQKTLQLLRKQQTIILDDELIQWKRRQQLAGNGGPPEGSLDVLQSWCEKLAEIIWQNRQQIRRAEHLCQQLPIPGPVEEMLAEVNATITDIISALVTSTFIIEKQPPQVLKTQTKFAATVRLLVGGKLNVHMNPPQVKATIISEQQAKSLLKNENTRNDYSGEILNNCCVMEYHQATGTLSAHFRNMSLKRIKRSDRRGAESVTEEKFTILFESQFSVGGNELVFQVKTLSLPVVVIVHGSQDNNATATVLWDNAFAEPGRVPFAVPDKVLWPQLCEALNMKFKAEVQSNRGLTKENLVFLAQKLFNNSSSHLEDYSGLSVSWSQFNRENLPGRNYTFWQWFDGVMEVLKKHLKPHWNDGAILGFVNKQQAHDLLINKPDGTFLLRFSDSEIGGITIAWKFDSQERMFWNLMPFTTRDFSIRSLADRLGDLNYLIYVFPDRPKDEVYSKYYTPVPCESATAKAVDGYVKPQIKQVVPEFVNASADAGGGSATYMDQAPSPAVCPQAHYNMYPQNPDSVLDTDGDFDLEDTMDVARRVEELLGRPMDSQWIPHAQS

[3] = species: Homo sapiens; test: Selectivity factor, ratio of IC50 for displacement of 5-carboxyfluorescein-GY(PO3H2)LVLDKW from STAT5A SH2 domain (unknown origin) to IC50 for displacement of 5-carboxyfluorescein-GY(PO3H2)LVLDKW from STAT5B SH2 domain (unknown origin)

| Compound | IC50 [1] [µM] | IC50 [2] [µM] | Ratio IC50 [3] |
| --- | --- | --- | --- |
| O=C(COc1ccc2cc(C(=O)Nc3ccc(Br)cc3)ccc2c1)NCc1ccc(OP(=O)(O)O)c(OP(=O)(O)O)c1 | 7.6 | 0.24 | 32 |
| O=C(COc1ccc2cc(C(=O)Nc3ccc(Cl)cc3)ccc2c1)NCc1ccc(OP(=O)(O)O)c(OP(=O)(O)O)c1 | 8.9 | 0.27 | 33 |
| O=C(COc1ccc2cc(C(=O)Nc3ccc(F)cc3)ccc2c1)NCc1ccc(OP(=O)(O)O)c(OP(=O)(O)O)c1 | 7.2 | 0.22 | 33 |
| O=C(COc1ccc(C(=O)Nc2ccc(F)cc2)cc1)NCc1ccc(OP(=O)(O)O)c(OP(=O)(O)O)c1 | 8.3 | 0.35 | 24 |
| O=C(COc1ccc(C(=O)Nc2ccc(Br)cc2)cc1)NCc1ccc(OP(=O)(O)O)c(OP(=O)(O)O)c1 | 8.6 | 0.39 | 22 |
| O=C(COc1ccc(C(=O)Nc2cccc(Br)c2)cc1)NCc1ccc(OP(=O)(O)O)c(OP(=O)(O)O)c1 | 10.5 | 0.66 | 16 |
| O=C(COc1ccc(C(=O)Nc2cccc(Cl)c2)cc1)NCc1ccc(OP(=O)(O)O)c(OP(=O)(O)O)c1 | 9.1 | 0.46 | 20 |
| O=C(COc1ccc2cc(C(=O)Nc3cccc(Br)c3)ccc2c1)NCc1ccc(OP(=O)(O)O)c(OP(=O)(O)O)c1 | 10.6 | 0.29 | 37 |
| O=C(COc1ccc(C(=O)Nc2ccc(Cl)cc2)cc1)NCc1ccc(OP(=O)(O)O)c(OP(=O)(O)O)c1 | 7.4 | 0.33 | 22 |

Further lines, results first:

| IC50 [1] [µM] | IC50 [2] [µM] | Ratio IC50 [3] | Compound |
| --- | --- | --- | --- |
| 7.3 | 0.26 | 28 | O=C(COc1ccc2cc(C(=O)Nc3cccc(Cl)c3)ccc2c1)NCc1ccc(OP(=O)(O)O)c(OP(=O)(O)O)c1 |
| 9.7 | 0.28 | 35 | O=C(COc1ccc(C(=O)Nc2ccccc2)cc1)NCc1ccc(OP(=O)(O)O)c(OP(=O)(O)O)c1 |
| 8.4 | 0.234 | 36 | O=C(COc1ccc2cc(C(=O)Nc3cccc(F)c3)ccc2c1)NCc1ccc(OP(=O)(O)O)c(OP(=O)(O)O)c1 |
| 11.9 | 0.62 | 19 | O=C(COc1ccc(C(=O)Nc2cccc(F)c2)cc1)NCc1ccc(OP(=O)(O)O)c(OP(=O)(O)O)c1 |
